{
  "source": "patent US20110319790A1",
  "about": "“PHARMACEUTICAL COMPOSITION AND SYSTEM FOR PERMEABILIZING FETAL MEMBRANES” (B.G. NEGEV TECHNOLOGIES AND APPLICATIONS LTD., priority 2008, published 2011)",
  "test_system": "postpartum human fetal membranes",
  "test": "Permeability of postpartum human fetal membranes to FITC-Dextran in a vertical glass diffusion cell after incubation with a substance",
  "conditions": "FIG. 8, 30 minutes incubation, FITC-Dextran 77 KDa, maternal side facing donor compartment",
  "method": "The permeability of postpartum human fetal membranes (obtained from Hillel Yaffe Medical Center, Israel) upon exposure to different substances was determined. The experimental set-up used is shown schematically in FIG. 7. […] The membrane 171 was first incubated with a substance 176 added to the donor compartment 173. After 30 minutes of incubation, the substance was removed from the donor compartment 173. The donor compartment was then washed with PBS, and the donor and receiver compartments were filled with 0.01M phosphate buffered Saline (PBS) 175. 5 mL of a 0.5 mg/mL Dextran solution in PBS (average molecular weight of the Dextran 77 KDa) conjugated to the fluorescent label FITC (fluorescein isothiocyanate-Dextran)) 179 was added to the donor compartment 173. The diffusion cell 172 was protected from light in order to prevent fluorescent bleaching of the FITC. 1 mL samples were withdrawn from the receiver compartment 174 at various times with constant stirring of the receiver compartment, and the concentration of the FITC in the samples was determined spectofluorimetrically.\nFrom the rate of increase in the concentration of the fluorescence in the receiver compartment 174, the extent of permeability enhancement of the membrane, in comparison to a control experiment was calculated.",
  "data": [
    {"smiles": "OCCO", "note": "[ethylene glycol]", "values": [
      {"measurement": "enhancement in permeability of the membrane compared to control", "setting": "substance at 10%", "result": "Enhanced permeability"}
    ]},
    {"smiles": "CC(C)CCCCCCCCCCCCCCC(=O)O", "note": "[iso-stearic acid]", "values": [
      {"measurement": "enhancement in permeability of the membrane compared to control", "setting": "substance at 10%", "result": "Enhanced permeability"}
    ]},
    {"smiles": "CCCCCCCCCCCCCCCC[N+](C)(C)C.[Br-]", "note": "[Cetyl trimethylammonium bromide (CTAB), Cetyl trimethylammonium bromide]", "values": [
      {"measurement": "enhancement in permeability of the membrane compared to control", "setting": "substance at 4%", "result": "Enhanced permeability"}
    ]},
    {"smiles": "CN1CCCC1=O", "note": "[N-methy-2-pyrrolidone (NMP), N-methy-2-pyrrolidone]", "values": [
      {"measurement": "enhancement in permeability of the membrane compared to control", "setting": "concentration not given", "result": "Enhanced permeability"}
    ]},
    {"smiles": "CCCCCCCC/C=C\\CCCCCCCC(=O)O", "note": "[Oleic acid]", "values": [
      {"measurement": "enhancement in permeability of the membrane compared to control", "setting": "substance at 1.5%", "result": "Enhanced permeability"}
    ]},
    {"smiles": "CCCCN1CCCCC1C(=O)Nc1c(C)cccc1C", "note": "(stereo not shown) [bupivacaine]", "values": [
      {"measurement": "enhancement in permeability of the membrane compared to control", "setting": "substance at 0.5%", "result": "Enhanced permeability"}
    ]},
    {"smiles": "CCCCCCCCCCCCOS(=O)(=O)[O-].[Na+]", "note": "[SLS, sodium lauryl sulfate]", "values": [
      {"measurement": "enhancement in permeability of the membrane compared to control", "setting": "substance at 1%", "result": "Enhanced permeability"}
    ]}
  ]
}
